# Test results: patent US11883526B2 (priority 2019, dated 2024)
# How the values were obtained:
# [1] = Pharmacokinetics of intranasal esketamine in healthy subjects (Example 9); details: across the 3 treatment groups
# Method: This was an open-label, single-center study. The subjects were healthy Caucasian men and women, 20 to 55 years of age, inclusive. […] The solution consisted of:
# Blood samples (4 mL each) for determination of esketamine and noresketamine plasma concentrations were collected into the appropriate collection tube (e.g., Vacutainer®) at timepoints 0.00, 0.12, 0.20, 0.37, 0.53, 0.67, 0.83, 1.00, 1.25, 1.50, 2.00, 3.00, 4.00, 6.00, 9.00, 12.00, 18.00, and 24.00 h. The total amount of blood to be drawn for clinical laboratory tests and PK evaluations is approximately 327 mL.
# Plasma samples were analyzed for esketamine and noresketamine concentrations using the validated, specific and sensitive liquid chromatography coupled to tandem mass spectrometry (LC-MS/MS) achiral method of Example 8.
# Serial PK blood samples (4 mL each) were collected for a 24-hour period from each subject (Periods 1, 2, and 3). […] Statistical Methods 1.6.4.1. Sample Size
# The following key parameters of esketamine and noresketamine in plasma were calculated using noncompartmental methods and actual sampling times: Cmax, tmax, AUClast, AUC∞, t1/2,λ, and λz.
# [2] = system: elderly subjects with TRD; details: US patients aged ≥65 years
# Method: Safety evaluation included reported adverse events, clinical laboratory tests, vital sign measurements, physical examinations, electrocardiograms and nasal examinations. Safety was assessed via treatment emergent AEs (TEAEs).
# [3] = system: patients with treatment-resistant depression (TRD); test: MADRS total score, response, remission (phase 2 dose-response study, Example 7); type: in vivo, human; details: for MADRS total score, LS mean difference vs placebo (all dose groups): 28, 56, 84 mg; for Remitters, % / Responders, %: study period endpoint
# Method: Efficacy was assessed with the Montgomery-Asberg Depression Rating Scale (MADRS; Montgomery, “A new depression scale designed to be sensitive to change”, Br. J. Psychiatry, 1979, 134:382-389; Williams, “Development and reliability of a structured interview guide for the Montgomery Asberg Depression Rating Scale (SIGMA)”, Br. J. Psychiatry, 2008, 192(1):52-58) on days 1 (pre-dose and 2 hour post-dose), 2, 8 (pre-dose), 9, and 15, using the structured interview guide (SIGMA). See, Williams 2008.
# Efficacy data were analyzed in intent-to-treat (ITT) analysis sets for each period and phase. The ITT analysis sets included all participants who received at least 1 dose of study medication during that period or phase and had baseline and at least one post-baseline MADRS total score within that period or phase.
# The primary efficacy endpoint—change from baseline (pre-dose, day 1 in each period) to endpoint (day 8 in each period) in MADRS total score—was analyzed using the analysis of covariance (ANCOVA) model. For Period 1, the model included treatment and country as factors, and baseline MADRS total score as covariate. For Period 2, the model included treatment and country as factors, Period 2 baseline QIDS-SR16 score (moderate or severe), and Period 2 baseline MADRS total score as a continuous covariate.
# Given the consistency between Periods 1 and 2 results (Chi 2016), esketamine dose groups were compared to placebo using a combined test on the weighted test statistics for each period in the double-blind treatment phase. A dose-response analysis on primary efficacy endpoint was performed using data combined from both periods. The Multiple Comparison Procedure-Modelling (MCP-Mod) methodology was performed (Williams 2008; Bretz, “Combining multiple comparisons and modeling techniques in dose-response studies”, Biometrics, 2005, 61:738-748).
# adult subjects with TRD = details: US patients
# From the text: Adverse events were reported by the subject (or, when appropriate, by a caregiver, surrogate, or the subject's legally acceptable representative) for the duration of the study. Adverse events were followed by the investigator. TEAEs of special interest were examined separately.
# The verbatim terms used in the eCRF by investigators to identify adverse events were coded using the MedDRA. All reported adverse events with onset during the double-blind induction phase (i.e., TEAEs, and adverse events that have worsened since baseline) were included in the analysis. For each adverse event, the percentage of subjects who experience at least 1 occurrence of the given event was summarized by treatment group. Adverse events occurring during the follow-up phase were summarized separately.
# TEAEs of special interest were examined separately. AEs of special interest were listed in the SAP. Subjects who died, who discontinued treatment due to an adverse event, or who experienced a severe or a serious adverse event were summarized separately.
# An adverse event is any untoward medical occurrence in a clinical study subject administered a medicinal (investigational or non-investigational) product. […]
# [4] = system: subjects with MDD at imminent risk for suicide; type: in vivo, human; details: 84 mg
# Method: Transient blood pressure increases peaked for the esketamine group at approximately 40 minutes post dose with the maximum mean increases (across all dosing days) in systolic BP being 8.7 in the placebo group and 16.7 in the esketamine 84 mg group. The maximum mean increases (across all dosing days) in diastolic BP were 7.6 in the placebo group and 11.9 in the esketamine 84 mg group. […] See, FIGS. 46 and 47.
# [5] = system: patients with treatment-resistant depression (TRD); test: CADSS (Example 7); design: species or system human; details: in vivo
# Method: (§1) Adverse events were monitored throughout the study. Other safety assessments (i.e., laboratory tests, vital signs, physical examination) were performed at pre-specified time points. Vital signs, the Clinician Administered Dissociative States Scale (CADSS; Bremner, “Measurement of dissociative states with the clinician-administered dissociative states scale (CADSS)”, J. Traumatic Stress, 1998, 11(1):125-136), and the 4-item positive symptom subscale from the Brief Psychiatric Rating Scale (BPRS; Overall, “The Brief Psychiatric Rating Scale. Psychological Reports”, 1962, 10:799-812) were assessed pre-dose, at 40 minutes, and 2 hours post-dose.
# [6] = system: patients with treatment-resistant depression (TRD); test: CGI-S (Example 7); type: in vivo, human
# Method: Overall illness severity was assessed on the Clinical Global Impression of Severity (CGI-S) scale (Guy, “ECDEU Assessment Manual for Psychopharmacology—Revised (DHEW Publ No ADM 76-338)”, Rockville, Md.: U.S. Department of Health, Education, and Welfare, Public Health Service, Alcohol, Drug Abuse, and Mental Health Administration, NIMH Psychopharmacology Research Branch, Division of Extramural Research Programs; 1976, pp 218-222). Participants assessed their severity of anxiety on the Generalized Anxiety Disorder 7-item (GADS-7) Scale (See, Tables 157 and 158). See, Spitzer, “A brief measure for assessing generalized anxiety disorder—the GAD-7”, Arch. Intern. Med., 2006, 166(10):1092-1097.
# [7] = system: patients with treatment-resistant depression (TRD); test: Vital signs: blood pressure and heart rate (Example 7); type: in vivo, human
# Method: as §1
# [8] = system: patients with treatment-resistant depression (TRD); test: BPRS positive symptom subscale (Example 7); design: species or system human; details: in vivo
# Method: as §1
# glutamate NMDA receptor = details: in vitro; cited from earlier work
compound,measurement,setting,value
"CN[C@]1(c2ccccc2Cl)CCCCC1=O [esketamine, (S)-2-(2-chlorophenyl)-2-(methylamino)cyclohexanone]",variability of AUC (AUClast and AUC∞),[1],25.0% to 30.4
same,variability of Cmax (percent coefficient of variation),[1],35.7% to 36.7
same,patients who withdrew the nasal spray,[2],2 n
same,proportion of responders (≥50% improvement in MADRS),"[3]; 84 mg, Period 2 endpoint",50.0%
same,"MADRS total score, LS mean difference vs placebo (all dose groups)","[3]; Period 1, baseline to day 8",−5.0 to −10.5
same,"Remitters, %","[3]; Period 1, 84 mg",(25.0) %
same,"Responders, %","[3]; Period 1, 84 mg",(41.7) %
same,"MADRS total score, LS mean difference vs placebo (all dose groups)","[3]; Period 2, day 8 to day 15",−3.1 to −6.9
same,"MADRS total score, LS mean change","[3]; Period 2, change at study period endpoint, 56 mg",−8.9
same,"Remitters, %","[3]; Period 2, 28 mg",(12.5) %
same,"Responders, %","[3]; Period 2, 28 mg",(12.5) %
same,"Remitters, %","[3]; Period 2, 84 mg",(20.0) %
same,patients who withdrew from nasal spray drug,adult subjects with TRD,3 n
same,blood pressure returning to normal range by,[4],≤ 2 hours post dose
same,maximum mean increase in diastolic BP,[4]; across all dosing days,11.9
same,maximum mean increase in systolic BP,[4]; across all dosing days,16.7
same,perceptual changes/dissociative symptoms (CADSS) peaked around,[5],30 to 40 min
same,perceptual changes/dissociative symptoms (CADSS) resolved by,[5],≤ 2 h
same,"CGI-S change from baseline, Median Change (Range)","[6]; Period 1 (first day to day 8), 28 mg","−1.0 (−2, 1)"
same,"CGI-S change from baseline, Median Change (Range)","[6]; Period 1 (first day to day 8), 56 mg","−1.0 (−3, 0)"
same,"CGI-S change from baseline, Median Change (Range)","[6]; Period 1 (first day to day 8), 84 mg","−0.5 (−4, 0)"
same,"CGI-S at end point, Median (Range)","[6]; Period 1, 28 mg","4.0 (3, 5)"
same,"CGI-S at end point, Median (Range)","[6]; Period 1, 56 mg","4.0 (1, 5)"
same,"CGI-S at end point, Median (Range)","[6]; Period 1, 84 mg","4.0 (1, 6)"
same,"CGI-S change from baseline, Median Change (Range)","[6]; Period 2 (first day to day 8 of period), 28 mg","−1.0 (−1, 0)"
same,"CGI-S change from baseline, Median Change (Range)","[6]; Period 2 (first day to day 8 of period), 56 mg","−1.0 (−2, 0)"
same,"CGI-S change from baseline, Median Change (Range)","[6]; Period 2 (first day to day 8 of period), 84 mg","−1.0 (−2, 0)"
same,"CGI-S at end point, Median (Range)","[6]; Period 2, 28 mg","4.0 (3, 5)"
same,"CGI-S at end point, Median (Range)","[6]; Period 2, 56 mg","5.0 (4, 6)"
same,"CGI-S at end point, Median (Range)","[6]; Period 2, 84 mg","4.0 (3, 5)"
same,maximum diastolic blood pressure value,[7]; 10 or 40 minutes post-dose,115 mmHg
same,maximum systolic blood pressure value,[7]; 10 or 40 minutes post-dose,199 mmHg
same,maximum mean change in diastolic blood pressure,[7]; dosing days,10.3 mmHg
same,maximum mean change in heart rate,[7]; dosing days,9.4 bpm
same,maximum mean change in systolic blood pressure,[7]; dosing days,19.0 mmHg
same,elevated blood pressure returned to the normal range by,[7]; in vivo,≤ 2 hours post-dose
same,symptoms suggestive of psychosis (BPRS-positive assessment),[8],No participant manifested symptoms suggestive of psychosis
same,affinity for the glutamate NMDA receptor relative to R-ketamine,glutamate NMDA receptor,3 to 4 fold
